Here are results for one compound from patent US12590105B2, “KRas G12C inhibitors” (Eli Lilly and Company, priority 2020, dated 2026).

The target in one experiment is KRas G12C (Homo sapiens, UniProt P01116, G12C). The experiment in a line: KRas G12C Probe Occupancy TR-FRET Assay. As to conditions: His-tagged KRas G12C; inhibitor incubated 5 or 60 minutes (which one applies is not stated); read-out: relative IC50, competition with KRas Probe for binding to and covalently modifying KRas G12C. The source says:
The purpose of this assay is to measure the ability of an inhibitor to compete with a probe for binding to and covalently modifying KRas G12C at codon 12. The signal is generated by the time-resolved transfer of fluorescence between europium on an antibody bound to KRas G12C Europium-labeled Anti-Histidine Tag Antibody LanthaScreen (the Eu Anti-His antibody) and fluorescent Tracer 647 (Alexa Fluor™) bound to KRas G12C through streptavidin and a biotinylated inhibitor (the “KRas Probe”, see Preparation 59).
Inhibitors are tested in dose response format from 10 mM stocks in 100% DMSO. The Labycyte Echo® 555 is used to dilute and transfer 100 nL per well containing a 10 point, 2.8-fold serial dilution to an assay plate. Two copies of the assay plate are prepared to measure the potency after 5 and 60 minutes incubation of the inhibitor with KRas G12C. His-tagged KRas G12C (20 nM) is added to the plates in assay buffer (20 mM Tris-HCl, pH 7.5, 0.01% TX-100, and 1 mM DTT). After 5 or 60 minutes incubation, 1 μM KRas Probe is added and allowed to covalently modify free KRas G12C for 1 hour. […] After 30 minutes, the fluorescent signal is read on an Envision™ Plate Reader (excitation at 340 nm, tracer emission (em) at […], and antibody emission at 615 nm). […]
For orientation: Time-resolved FRET reads energy transfer from a long-lived donor to a nearby acceptor.

For experiment [1], the system named is phosphorylation of p-ERK1/2 in H358 cells. The experiment in a line: H358 Cellular Phospho-ERK AlphaLISA. The class given is cell-based. As to conditions: NCI-H358; H358 human lung cancer cells, 2 hours incubation; read-out: relative IC50, inhibition of phosphorylation of p-ERK1/2. An excerpt: The purpose of this assay is to measure the ability of test compounds to inhibit the phosphorylation of p-ERK1/2, a downstream effector of KRas in human lung cancer cells H358 (ATCC CRL-5807). Briefly, the AlphaLISA® SureFire® Ultra™ p-ERK 1/2 (Thr202/Tyr204) assay is a sandwich immunoassay for quantitative detection of phospho-ERK 1/2 (phosphorylated on Thr202/Tyr204 in ERK1, or Thr185/Tyr187 in ERK2) in cellular lysates using Alpha Technology (Perkin Elmer Cat #ALSU-PERK-A50K).
H358 cells are plated at 40K cells per well in 100 μL media (RPMI 1640, GIBCO Cat #22400-071) containing 10% FBS (GIBCO Cat #: 10082-147) in a 96 well plate (Costar #3596) and are incubated overnight in humid trays at 37° C., 5% CO2. […] The assay plate is then read on an EnVision™ Plate Reader (Perkin Elmer) using a luminescence program. […]
For orientation: Alpha assays give light when donor and acceptor beads are brought close together.

In experiment [2] the target is T1, constitutive RAS GTPase activity in H358 cells (Homo sapiens, UniProt P01116, G12C).
T1 construct: host or cells: H358 human lung cancer cells
T1 sequence (P01116 1-188 isoform P01116-2 G12C): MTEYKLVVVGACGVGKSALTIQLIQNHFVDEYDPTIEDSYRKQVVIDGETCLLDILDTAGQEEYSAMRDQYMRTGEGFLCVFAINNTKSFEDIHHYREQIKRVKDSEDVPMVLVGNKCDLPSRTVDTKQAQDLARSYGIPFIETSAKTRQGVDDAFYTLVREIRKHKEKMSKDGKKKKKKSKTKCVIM
The experiment is described as follows: H358 Cellular Active RAS GTPase ELISA. Particulars: H358 human lung cancer cells, serum free media, 2 hours incubation; read-out: relative IC50, inhibition of constitutive RAS GTPase activity. The class given is cell-based. An excerpt: The purpose of this assay is to measure the ability of test compounds to inhibit constitutive RAS GTPase activity in human lung cancer cells H358 (ATCC CRL-5807). The RAS GTPase ELISA kit (Active Motif Cat #52097) contains a 96-well plate pre-coated with glutathione in order to capture a kit-supplied GST-Raf-RBD protein. Activated RAS (GTP-bound) in cell extracts specifically bind to the Raf-RBD. Bound RAS is detected with a primary antibody that recognizes human KRas. A secondary antibody conjugated with HRP recognizes the primary antibody and a development solution provides a chemiluminescent readout.
H358 cells are plated at 80,000 cells/well in 90 μL serum free media (RPMI 1640, GIBCO) and incubated overnight at 37° C./5% CO2. The next morning, 10 μL of serially-diluted (3-fold) test compounds (500 μM top concentration) and 10 μL of controls (Maximum signal wells: 5% DMSO and Minimum signal wells: 500 μM 1-[4-[6-chloro-8-fluoro-7-(3-hydroxy-1-naphthyl)quinazolin-4-yl]piperazin-1-yl]prop-2-en-1-one, WO2015054572 as an inhibitor) are added to the cell plate and incubated for 2 hours at 37° C./5% CO2. Complete Lysis/Binding Buffer is prepared containing Protease Inhibitor cocktail and GST-Raf-RBD and stored on ice. […] The assay plate is then read on an EnVision™ Plate Reader (Perkin Elmer) using a luminescence program. […]
For orientation: An ELISA detects its analyte on a solid surface through an enzyme-linked reagent.

KRas G12C, sequence (P01116 1-188 isoform P01116-2 G12C): as above

Consider `C=CC(=O)N1CCN2C(=O)c3cc(Cl)c(-c4ccc(F)c5sccc45)c(Cl)c3OCC[C@H]2C1` (single isomer, unassigned) [Example 2], for which the IC50 was 34 nM on KRas G12C, 89 nM in experiment [1] and 326 nM in experiment [2].
